Data published in patent publication US8916551B2, “Heterocyclic compound and use thereof” (Takeda Pharmaceutical Company Limited, priority 2010, dated 2014).

Target: T1, AMPA receptor (human GluR1 flip/stargazin expressed in CHO-K1 cells) (Homo sapiens, UniProt P42261)
T1 construct: expressed in transfected cells; host or cells: CHO-K1
Assay: AMPA receptor function enhancing activity using calcium influx as index
Format: cell-based
Conditions: test compound 30 μM with 3 mM glutamic acid, change in fluorescence level in 3 min, 100% = 3 mM glutamic acid + 300 μM cyclothiazide, 0% = 3 mM glutamic acid only
Description: Human GluR1 flip cDNA was amplified by PCR using forward primer […] (SEQ ID NO: 1) and reverse primer […] (SEQ ID NO: 2) artificially synthesized using human brain-derived cDNA (BD Bio science) as a template. The amplified product was digested with restriction enzymes EcoRI, NotI (TAKARA SHUZO CO. LTD.), and incorporated into the same site of pcDNA3.1(+) (Invitrogen) to construct pcDNA3.1(+)/human GluR1 flip gene. Human stargazin cDNA was amplified by PCR using forward primer […] (SEQ ID NO: 3) and reverse primer […] (SEQ ID NO: 4) artificially synthesized using human hippocampus cDNA as a template. The amplified product was digested with restriction enzymes XhoI, BamHI (TAKARA SHUZO CO. LTD.), and incorporated into the same site of pcDNA3.1(−) (Invitrogen) to construct pcDNA3.1 Zeo(−)/human stargazin gene.
CHO-K1 cells passaged in a culture medium (Ham's F12 medium (Invitrogen) added with 10% inactivated fetal bovine serum (Morgate) and penicillin, streptomycin (Invitrogen)) were detached with 0.05% trypsin, 0.53 mM EDTA (Invitrogen) diluted with D-PBS(−). The detached cells were suspended in a culture medium, and recovered by a centrifugation operation at 1,000 rpm. The recovered cells were suspended again in D-PBS(−), and added to a 0.4 cm electroporation cuvette (BioRad). pcDNA3.1(+)/human GluR1 flip gene (5 μg) and pcDNA3.1 Zeo(−)/human stargazin gene (15 μg) were added, and the mixture was introduced into CHO-K1 cells using Gene Pulser II (BioRad) under the conditions of 950 μFd, […]. The introduced cells were cultured overnight in a culture medium and, the next day, plated in a 96 well plate at 250 cells/well using a selection medium (culture medium added with Zeocin (Invitrogen) to 250 μg/mL). Clones showing drug resistance were selected, and GluR1 flip/stargazin expressing clones were selected by an assay method using calcium influx as an index as shown below.
CHO-K1/GluR1 flip/stargazin expressing cells were plated on a 96 well black transparent bottom plate (Costar) at 2×10^4 cells/well, and cultured in a 37° C., CO2 incubator (SANYO Electric Co., Ltd.) for 2 days. The medium in the cell plate was removed, and assay buffer A (D-MEM (Invitrogen), 0.1% BSA (Serogical Protein), 20 mM HEPES (Invitrogen)) was added at 50 μL/well. A calcium indicator (Calcium 4 Assay Kit, Invitrogen) added with 2.5 mM probenecid (Invitrogen) was added at 50 μL/well and the well was left standing in 37° C., CO2 incubator for 1 hr. The cell plate was set in CellLux (PerkinElmer), a mixture (50 μL) of 9 mM glutamic acid diluted with assay buffer B (HBSS (Invitrogen), 0.1% BSA, 20 mM HEPES) (final concentration 3 mM) and a test compound (test compound concentration 30 μM) was added, and the amount of change in fluorescence level in 3 min was measured. In the definition here, the amount of change in fluorescence level of well added with glutamic acid at final concentration 3 mM and 300 μM cyclothiazide (TOCRIS) is 100%, the amount of change in fluorescence level of well added only with glutamic acid at final concentration 3 mM is 0%, and the compound activity was calculated according to the following formula. activity(%)=(X−C)/(T−C)×100 T: amount of change in fluorescence level of well added with glutamic acid at final concentration 3 mM and 300 μM cyclothiazide C: amount of change in fluorescence level of well added only with glutamic acid at final concentration 3 mM X: amount of change in fluorescence level of well added with test compound

T1 sequence (P42261 19-906 isoform P42261-2 limits assumed): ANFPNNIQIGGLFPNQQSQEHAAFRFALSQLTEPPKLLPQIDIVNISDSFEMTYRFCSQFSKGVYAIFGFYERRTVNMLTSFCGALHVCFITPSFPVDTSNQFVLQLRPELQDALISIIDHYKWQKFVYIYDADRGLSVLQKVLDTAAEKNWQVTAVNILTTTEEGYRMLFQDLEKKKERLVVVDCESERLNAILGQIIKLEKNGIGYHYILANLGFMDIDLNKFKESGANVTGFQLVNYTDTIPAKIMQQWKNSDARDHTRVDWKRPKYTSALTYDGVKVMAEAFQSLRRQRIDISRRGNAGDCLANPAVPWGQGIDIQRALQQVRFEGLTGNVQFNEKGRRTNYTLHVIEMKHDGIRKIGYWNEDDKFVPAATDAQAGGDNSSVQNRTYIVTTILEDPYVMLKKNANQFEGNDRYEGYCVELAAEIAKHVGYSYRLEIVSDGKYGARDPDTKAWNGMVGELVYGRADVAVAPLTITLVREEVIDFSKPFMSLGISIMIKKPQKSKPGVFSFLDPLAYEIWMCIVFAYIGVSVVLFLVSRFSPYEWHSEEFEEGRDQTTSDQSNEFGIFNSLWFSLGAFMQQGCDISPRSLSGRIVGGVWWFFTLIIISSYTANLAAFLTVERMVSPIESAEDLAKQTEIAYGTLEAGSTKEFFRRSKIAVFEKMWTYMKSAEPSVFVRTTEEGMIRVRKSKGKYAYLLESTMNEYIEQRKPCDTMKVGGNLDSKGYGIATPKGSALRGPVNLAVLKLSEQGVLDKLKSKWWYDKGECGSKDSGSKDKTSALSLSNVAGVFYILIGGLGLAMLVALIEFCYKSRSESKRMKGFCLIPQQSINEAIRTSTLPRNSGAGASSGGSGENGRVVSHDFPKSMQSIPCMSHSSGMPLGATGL
T1 sequence (Q9Y698 whole entry partner): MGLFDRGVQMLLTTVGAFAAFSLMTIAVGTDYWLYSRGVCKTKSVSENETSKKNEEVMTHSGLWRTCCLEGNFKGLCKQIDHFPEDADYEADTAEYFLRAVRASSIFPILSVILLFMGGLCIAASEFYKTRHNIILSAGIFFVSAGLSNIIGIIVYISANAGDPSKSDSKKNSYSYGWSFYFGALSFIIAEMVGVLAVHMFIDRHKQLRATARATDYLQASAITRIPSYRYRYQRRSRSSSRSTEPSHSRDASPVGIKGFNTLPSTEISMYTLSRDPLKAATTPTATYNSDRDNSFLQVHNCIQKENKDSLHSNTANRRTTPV

| activity (%) | Structure (SMILES) |
| --- | --- |
| 79 | O=S1(=O)CCN2C=CC=C(c3ccc(Oc4ccccc4)cn3)C2=N1 [Example 258, 9-(5-phenoxypyridin-2-yl)-3,4-dihydropyrido[2,1-c][1,2,4]thiadiazine 2,2-dioxide] |
| 72 | O=S1(=O)CCN2CCCC(c3ccc(OC4CCCCC4)cc3)C2=N1 (centres unmarked) [Example 261, 9-[4-(cyclohexyloxy)phenyl]-3,4,6,7,8,9-hexahydropyrido[2,1-c][1,2,4]thiadiazine 2,2-dioxide] |

The next lines start with the compound.

| Structure (SMILES) | activity (%) |
| --- | --- |
| CC1=CN2CCS(=O)(=O)N=C2C(c2ccc(OC3CCCCC3)cc2)=N1 [Example 180, 9-[4-(cyclohexyloxy)phenyl]-7-methyl-3,4-dihydropyrazino[2,1-c][1,2,4]thiadiazine 2,2-dioxide] | 70 |
| CC(F)(F)c1ccc(Oc2ccc(C3CCCN4CCS(=O)(=O)N=C34)cc2)cc1 (centres unmarked) [Example 235, 9-{4-[4-(1,1-difluoroethyl)phenoxy]phenyl}-3,4,6,7,8,9-hexahydropyrido[2,1-c][1,2,4]thiadiazine 2,2-dioxide] | 84 |
| O=S1(=O)CCN2CCC[C@@H](c3ccc(Oc4ccc(Br)cc4)cc3)C2=N1 [Example 228, (9S)-9-[4-(4-bromophenoxy)phenyl]-3,4,6,7,8,9-hexahydropyrido[2,1-c][1,2,4]thiadiazine 2,2-dioxide] | 78 |

Same assay, conditions: test compound 30 μM with glutamic acid final 3 mM, change in fluorescence in 3 min, 100% = 3 mM glutamic acid + 300 μM cyclothiazide, 0% = 3 mM glutamic acid only

| activity (%) | Structure (SMILES) |
| --- | --- |
| 99 | O=C(c1ccccc1)c1ccc(C2=CC=CN3CCS(=O)(=O)N=C23)cc1 [Example 298, [4-(2,2-dioxido-3,4-dihydropyrido[2,1-c][1,2,4]thiadiazin-9-yl)phenyl](phenyl)methanone] |
| 85 | CSc1ccc(C2=CC=CN3CCS(=O)(=O)N=C23)cc1 [Example 408, 9-[4-(methylsulfanyl)phenyl]-3,4-dihydropyrido[2,1-c][1,2,4]thiadiazine 2,2-dioxide] |
| 89 | COc1cccc(C(=O)c2ccc(C3=CC=CN4CCS(=O)(=O)N=C34)cc2)c1 [Example 306, [4-(2,2-dioxido-3,4-dihydropyrido[2,1-c][1,2,4]thiadiazin-9-yl)phenyl](3-methoxyphenyl)methanone] |
| 74 | O=S1(=O)CCN2C=CN=C(c3ccc(-c4ccccc4)c(F)c3)C2=N1 [Example 344, 9-(2-fluorobiphenyl-4-yl)-3,4-dihydropyrazino[2,1-c][1,2,4]thiadiazine 2,2-dioxide] |
| 85 | CC(C)Oc1ccc(C2=CC=CN3CCS(=O)(=O)N=C23)cc1F [Example 361, 9-[3-fluoro-4-(1-methylethoxy)phenyl]-3,4-dihydropyrido[2,1-c][1,2,4]thiadiazine 2,2-dioxide] |
| 83 | CC(=O)c1ccc(C2=CC=CN3CCS(=O)(=O)N=C23)cc1 [Example 400, 1-[4-(2,2-dioxido-3,4-dihydropyrido[2,1-c][1,2,4]thiadiazin-9-yl)phenyl]ethanone] |
| 76 | O=S1(=O)CCN2CCCC(c3ccc(Oc4ccccc4)c(F)c3)C2=N1 (centres unmarked) [Example 347, 9-(3-fluoro-4-phenoxyphenyl)-3,4,6,7,8,9-hexahydropyrido[2,1-c][1,2,4]thiadiazine 2,2-dioxide] |

The remaining lines, values behind:

| Structure (SMILES) | activity (%) |
| --- | --- |
| COc1cccc(Oc2ccc(C3CCCN4CCS(=O)(=O)N=C34)cc2)c1 (centres unmarked) [Example 98, 9-[4-(3-methoxyphenoxy)phenyl]-3,4,6,7,8,9-hexahydropyrido[2,1-c][1,2,4]thiadiazine 2,2-dioxide] | 71 |
| Cc1cccc(Oc2ccc(C3=CC=CN4CCS(=O)(=O)N=C34)cc2)c1 [Example 117, 9-[4-(3-methylphenoxy)phenyl]-3,4-dihydropyrido[2,1-c][1,2,4]thiadiazine 2,2-dioxide] | 90 |
| COc1ccc2cc(C3=CC=CN4CCS(=O)(=O)N=C34)ccc2c1 [Example 126, 9-(6-methoxynaphthalen-2-yl)-3,4-dihydropyrido[2,1-c][1,2,4]thiadiazine 2,2-dioxide] | 72 |
| COc1cccc(Oc2ccc(C3=CC=CN4CCS(=O)(=O)N=C34)cc2)c1 [Example 90, 9-[4-(3-methoxyphenoxy)phenyl]-3,4-dihydropyrido[2,1-c][1,2,4]thiadiazine 2,2-dioxide] | 78 |
| Cc1ccc(Oc2ccc(C3CCCN4CCS(=O)(=O)N=C34)cc2)cc1 (centres unmarked) [Example 108, 9-[4-(4-methylphenoxy)phenyl]-3,4,6,7,8,9-hexahydropyrido[2,1-c][1,2,4]thiadiazine 2,2-dioxide] | 68 |
| Cc1cc(Oc2ccc(C3=CC=CN4CCS(=O)(=O)N=C34)cc2)ccc1F [Example 111, 9-[4-(4-fluoro-3-methylphenoxy)phenyl]-3,4-dihydropyrido[2,1-c][1,2,4]thiadiazine 2,2-dioxide] | 58 |
| O=S1(=O)CCN2CCCC(c3ccc(Oc4ccccc4)cc3)C2=N1 (centres unmarked) [Example 43, 9-(4-phenoxyphenyl)-3,4,6,7,8,9-hexahydropyrido[2,1-c][1,2,4]thiadiazine 2,2-dioxide] | 81 |
| O=S1(=O)CCN2CCCC(c3ccc(Oc4ccc5c(c4)OCC5)cc3)C2=N1 (centres unmarked) [Example 141, 9-[4-(2,3-dihydro-1-benzofuran-6-yloxy)phenyl]-3,4,6,7,8,9-hexahydropyrido[2,1-c][1,2,4]thiadiazine 2,2-dioxide] | 80 |
| O=S1(=O)CCN2C=CN=C(c3ccc(OC4CCCCC4)nc3)C2=N1 [Example 94, 9-[6-(cyclohexyloxy)pyridin-3-yl]-3,4-dihydropyrazino[2,1-c][1,2,4]thiadiazine 2,2-dioxide] | 71 |
| O=S1(=O)CCN2C=CC=C(c3ccc(O)cc3)C2=N1 [Example 87, 4-(2,2-dioxido-3,4-dihydropyrido[2,1-c][1,2,4]thiadiazin-9-yl)phenol] | 51 |
| O=S1(=O)CCN2C=CC=C(c3ccc(OC4CCC4)cc3)C2=N1 [Example 91, 9-[4-(cyclobutyloxy)phenyl]-3,4-dihydropyrido[2,1-c][1,2,4]thiadiazine 2,2-dioxide] | 81 |
| COc1cccc(-c2ccc(C3CCCN4CCS(=O)(=O)N=C34)cc2)c1 (centres unmarked) [Example 106, 9-(3′-methoxybiphenyl-4-yl)-3,4,6,7,8,9-hexahydropyrido[2,1-c][1,2,4]thiadiazine 2,2-dioxide] | 98 |
| CCC(CC)Oc1ccc(C2=CC=CN3CCS(=O)(=O)N=C23)cc1 [Example 72, 9-[4-(1-ethylpropoxy)phenyl]-3,4-dihydropyrido[2,1-c][1,2,4]thiadiazine 2,2-dioxide] | 80 |
| Cc1cc(C(F)(F)F)ccc1Oc1ccc(C2=CC=CN3CCS(=O)(=O)N=C23)cc1 [Example 121, 9-{4-[2-methyl-4-(trifluoromethyl)phenoxy]phenyl}-3,4-dihydropyrido[2,1-c][1,2,4]thiadiazine 2,2-dioxide] | 71 |
| Cc1cc(Oc2ccc(C3CCCN4CCS(=O)(=O)N=C34)cc2)ccc1F (centres unmarked) [Example 112, 9-[4-(4-fluoro-3-methylphenoxy)phenyl]-3,4,6,7,8,9-hexahydropyrido[2,1-c][1,2,4]thiadiazine 2,2-dioxide] | 79 |
| O=S1(=O)CCN2C=C(F)C=C(c3ccc(OC4CCCCC4)cc3)C2=N1 [Example 89, 9-[4-(cyclohexyloxy)phenyl]-7-fluoro-3,4-dihydropyrido[2,1-c][1,2,4]thiadiazine 2,2-dioxide] | 85 |
| Cc1nc2cc(OC3=CC=CN4CCS(=O)(=O)N=C34)ccc2s1 [Example 24, 9-[(2-methyl-1,3-benzothiazol-5-yl)oxy]-3,4-dihydropyrido[2,1-c][1,2,4]thiadiazine 2,2-dioxide] | 78 |
